Laboratory results as given in ChEMBL document CHEMBL1201862, “PubChem BioAssay data set” (2004).
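Growth conditions: 96-well plates. Treatment: test compound, 48 hours, 5 concentrations. Analysis: linear interpolation between bracketing concentrations; unreached endpoints set to highest concentration. GI50 = concentration required for 50% inhibition of growth.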 The source made the active and inactive calls. No stated cut-off is given here; in the data, active = GI50 up to about 1.1 µM and inactive = higher.

Experiments:
Test in all cases: growth of human tumour cells (NCI), 48 h
SR = tested on: SR
SN12C = tested on: SN12C
Hs-578T = tested on: Hs-578T
SNB-19 = tested on: SNB-19
OVCAR-5 = tested on: OVCAR-5
PC-3 = tested on: PC-3
IGROV-1 = tested on: IGROV-1
OVCAR-8 = tested on: OVCAR-8
MDA-MB-231 = tested on: MDA-MB-231
SK-MEL-28 = tested on: SK-MEL-28
TK-10 = tested on: TK-10
NCI-H23 = tested on: NCI-H23
UACC-62 = tested on: UACC-62
MDA-N = tested on: MDA-N
LOX IMVI = tested on: LOX IMVI
T47D = tested on: T47D
SK-MEL-2 = tested on: SK-MEL-2
HOP-92 = tested on: HOP-92
SK-MEL-5 = tested on: SK-MEL-5
U-251 = tested on: U-251
NCI-H226 = tested on: NCI-H226
A498 = tested on: A498
SW-620 = tested on: SW-620
MOLT-4 = tested on: MOLT-4
MDA-MB-435 = tested on: MDA-MB-435
CCRF-CEM = tested on: CCRF-CEM
HCT-15 = tested on: HCT-15
OVCAR-4 = tested on: OVCAR-4
HCC 2998 = tested on: HCC 2998
Malme-3M = tested on: Malme-3M
HCT-116 = tested on: HCT-116
EKVX = tested on: EKVX
MCF7 = tested on: MCF7
NCI-H460 = tested on: NCI-H460
M14 = tested on: M14
SNB-75 = tested on: SNB-75
DU-145 = tested on: DU-145
786-0 = tested on: 786-0
SF-295 = tested on: SF-295
NCI/ADR-RES = tested on: NCI/ADR-RES
K562 = tested on: K562
OVCAR-3 = tested on: OVCAR-3
CAKI-1 = tested on: CAKI-1
A549 = tested on: A549
COLO 205 = tested on: COLO 205
HL-60 = tested on: HL-60
ACHN = tested on: ACHN
SK-OV-3 = tested on: SK-OV-3
UO-31 = tested on: UO-31
KM12 = tested on: KM12
HT-29 = tested on: HT-29
SF-539 = tested on: SF-539
UACC-257 = tested on: UACC-257
BT-549 = tested on: BT-549
HOP-62 = tested on: HOP-62
NCI-H522 = tested on: NCI-H522
SF-268 = tested on: SF-268
RPMI-8226 = tested on: RPMI-8226
RXF 393 = tested on: RXF 393

O=C1/C(=C/c2ccc(Cl)cc2)CCC/C1=C\c1ccc(O)c(CN2CCCCC2)c1
GI50 (SR): 3.78 µM (inactive)
GI50 (SN12C): 26.6 µM (inactive)
GI50 (Hs-578T): 15.7 µM (inactive)
GI50 (SNB-19): 33 µM (inactive)
GI50 (OVCAR-5): 23.8 µM (inactive)
GI50 (PC-3): 8.91 µM (inactive)
GI50 (IGROV-1): 15.5 µM (inactive)
GI50 (OVCAR-8): 14.5 µM (inactive)
GI50 (MDA-MB-231): 26.9 µM (inactive)
GI50 (SK-MEL-28): 21 µM (inactive)
GI50 (TK-10): 29.2 µM (inactive)
GI50 (NCI-H23): 19.1 µM (inactive)
GI50 (UACC-62): 16.1 µM (inactive)
GI50 (MDA-N): 12.9 µM (inactive)
GI50 (LOX IMVI): 13.1 µM (inactive)
GI50 (T47D): 19.5 µM (inactive)
GI50 (SK-MEL-2): 42.1 µM (inactive)
GI50 (HOP-92): 18.5 µM (inactive)
GI50 (SK-MEL-5): 15.1 µM (inactive)
GI50 (U-251): 16.6 µM (inactive)
GI50 (NCI-H226): 16.1 µM (inactive)
GI50 (A498): 14.6 µM (inactive)
GI50 (SW-620): 18 µM (inactive)
GI50 (MOLT-4): 24 µM (inactive)
GI50 (MDA-MB-435): 17 µM (inactive)
GI50 (CCRF-CEM): 6.01 µM (inactive)
GI50 (HCT-15): 12.2 µM
GI50 (OVCAR-4): 20 µM (inactive)
GI50 (HCC 2998): 20.2 µM (inactive)
GI50 (Malme-3M): 21.4 µM (inactive)
GI50 (HCT-116): 8.57 µM (inactive)
GI50 (EKVX): 18.1 µM (inactive)
GI50 (MCF7): 47.1 µM (inactive)
GI50 (NCI-H460): 19.5 µM (inactive)
GI50 (M14): 20.8 µM (inactive)
GI50 (SNB-75): 19.1 µM (inactive)
GI50 (DU-145): 17.1 µM (inactive)
GI50 (786-0): 15 µM (inactive)
GI50 (SF-295): 14.2 µM (inactive)
GI50 (NCI/ADR-RES): 12.9 µM (inactive)
GI50 (K562): 9.29 µM (inactive)
GI50 (OVCAR-3): 24.1 µM (inactive)
GI50 (CAKI-1): 18.9 µM (inactive)
GI50 (A549): 27.2 µM (inactive)
GI50 (COLO 205): 20.3 µM (inactive)
GI50 (HL-60): 2.13 µM (inactive)
GI50 (ACHN): 15.7 µM (inactive)
GI50 (SK-OV-3): 24 µM (inactive)
GI50 (UO-31): 16.3 µM (inactive)
GI50 (KM12): 4.51 µM (inactive)
GI50 (HT-29): 3.54 µM (inactive)
GI50 (SF-539): 21.8 µM (inactive)
GI50 (UACC-257): 17.8 µM (inactive)
GI50 (BT-549): 11.2 µM (inactive)
GI50 (HOP-62): 39 µM (inactive)

O=C(/C=C/c1ccccc1)C[C@@H](O)C[C@@H]1CC=CC(=O)O1
GI50 (SR): 2.84 µM (inactive)
GI50 (SN12C): 12.5 µM (inactive)
GI50 (Hs-578T): > 33.4 µM (inactive)
GI50 (SNB-19): 15.9 µM (inactive)
GI50 (OVCAR-5): 20 µM (inactive)
GI50 (PC-3): 16.3 µM (inactive)
GI50 (IGROV-1): 6.85 µM (inactive)
GI50 (OVCAR-8): 3.32 µM (inactive)
GI50 (MDA-MB-231): 14.4 µM (inactive)
GI50 (SK-MEL-28): 11.5 µM (inactive)
GI50 (TK-10): 14.9 µM (inactive)
GI50 (NCI-H522): 2.64 µM (inactive)
GI50 (NCI-H23): 8.95 µM (inactive)
GI50 (SF-268): 10.1 µM (inactive)
GI50 (UACC-62): 8.97 µM (inactive)
GI50 (MDA-N): 4.76 µM (inactive)
GI50 (LOX IMVI): 1.95 µM (inactive)
GI50 (T47D): 10.6 µM (inactive)
GI50 (SK-MEL-2): 14.2 µM (inactive)
GI50 (HOP-92): 3.88 µM (inactive)
GI50 (SK-MEL-5): 12.4 µM (inactive)
GI50 (U-251): 8.69 µM (inactive)
GI50 (NCI-H226): > 100 µM (inactive)
GI50 (A498): 16.7 µM (inactive)
GI50 (SW-620): 2.35 µM (inactive)
GI50 (MOLT-4): 2.65 µM (inactive)
GI50 (MDA-MB-435): 4.86 µM (inactive)
GI50 (CCRF-CEM): 1.85 µM (inactive)
GI50 (HCT-15): 10.2 µM
GI50 (OVCAR-4): 15.2 µM (inactive)
GI50 (HCC 2998): 5.93 µM (inactive)
GI50 (Malme-3M): 14.2 µM (inactive)
GI50 (HCT-116): 2.46 µM (inactive)
GI50 (EKVX): 17.1 µM (inactive)
GI50 (MCF7): 3.94 µM (inactive)
GI50 (NCI-H460): 16.3 µM (inactive)
GI50 (M14): 5.81 µM (inactive)
GI50 (SNB-75): 16.7 µM (inactive)
GI50 (DU-145): 17.2 µM (inactive)
GI50 (786-0): 3.34 µM (inactive)
GI50 (SF-295): 13.7 µM (inactive)
GI50 (NCI/ADR-RES): 20.5 µM (inactive)
GI50 (K562): 2.33 µM (inactive)
GI50 (OVCAR-3): 3.75 µM (inactive)
GI50 (CAKI-1): 14.2 µM (inactive)
GI50 (A549): 18.7 µM (inactive)
GI50 (COLO 205): 5.5 µM (inactive)
GI50 (HL-60): 2.18 µM (inactive)
GI50 (ACHN): 12.7 µM (inactive)
GI50 (SK-OV-3): 14.3 µM (inactive)
GI50 (UO-31): 9.18 µM (inactive)
GI50 (KM12): 4.67 µM (inactive)
GI50 (HT-29): 5.13 µM (inactive)
GI50 (SF-539): 3.57 µM (inactive)
GI50 (UACC-257): 13.6 µM (inactive)
GI50 (BT-549): 11.4 µM (inactive)
GI50 (RPMI-8226): 2.61 µM (inactive)
GI50 (HOP-62): 16 µM (inactive)

O=C1Oc2ccccc2N/C1=C/C(=O)c1ccc(Cl)cc1
GI50 (SR): 39.4 µM (inactive)
GI50 (SN12C): > 100 µM (inactive)
GI50 (Hs-578T): > 100 µM (inactive)
GI50 (SNB-19): > 100 µM (inactive)
GI50 (OVCAR-5): > 100 µM (inactive)
GI50 (PC-3): 28.1 µM (inactive)
GI50 (IGROV-1): > 100 µM (inactive)
GI50 (OVCAR-8): 42.5 µM (inactive)
GI50 (MDA-MB-231): > 100 µM (inactive)
GI50 (TK-10): > 100 µM (inactive)
GI50 (NCI-H522): 38.1 µM (inactive)
GI50 (NCI-H23): > 100 µM (inactive)
GI50 (SF-268): > 100 µM (inactive)
GI50 (UACC-62): 32.4 µM (inactive)
GI50 (MDA-N): 66.1 µM (inactive)
GI50 (T47D): 47.5 µM (inactive)
GI50 (SK-MEL-2): > 100 µM (inactive)
GI50 (SK-MEL-5): 38.6 µM (inactive)
GI50 (U-251): > 100 µM (inactive)
GI50 (NCI-H226): > 100 µM (inactive)
GI50 (A498): > 100 µM (inactive)
GI50 (MOLT-4): > 100 µM (inactive)
GI50 (MDA-MB-435): 61.4 µM (inactive)
GI50 (CCRF-CEM): 7.96 µM (inactive)
GI50 (HCT-15): > 100 µM
GI50 (OVCAR-4): > 100 µM (inactive)
GI50 (HCC 2998): 63.5 µM (inactive)
GI50 (Malme-3M): > 100 µM (inactive)
GI50 (RXF 393): > 100 µM (inactive)
GI50 (HCT-116): 62.5 µM (inactive)
GI50 (EKVX): > 100 µM (inactive)
GI50 (MCF7): 41.7 µM (inactive)
GI50 (NCI-H460): > 100 µM (inactive)
GI50 (M14): > 100 µM (inactive)
GI50 (SNB-75): > 100 µM (inactive)
GI50 (DU-145): > 100 µM (inactive)
GI50 (786-0): > 100 µM (inactive)
GI50 (SF-295): 51.4 µM (inactive)
GI50 (NCI/ADR-RES): 39 µM (inactive)
GI50 (K562): 37.1 µM (inactive)
GI50 (OVCAR-3): 37.9 µM (inactive)
GI50 (CAKI-1): > 100 µM (inactive)
GI50 (A549): 60.3 µM (inactive)
GI50 (COLO 205): > 100 µM (inactive)
GI50 (ACHN): > 100 µM (inactive)
GI50 (SK-OV-3): > 100 µM (inactive)
GI50 (UO-31): 73.5 µM (inactive)
GI50 (KM12): > 100 µM (inactive)
GI50 (HT-29): > 100 µM (inactive)
GI50 (SF-539): 46.9 µM (inactive)
GI50 (UACC-257): > 100 µM (inactive)
GI50 (BT-549): > 100 µM (inactive)
GI50 (HOP-62): > 100 µM (inactive)
